Test results as given in patent US20120245137A1 (Zalicus Pharmaceuticals Ltd., priority 2009, published 2012).

Tests used:
Assay type in all cases: cell-based
[1] = target: human α1H T-type channels (Homo sapiens, UniProt O95180); assay: T-type calcium channel block, whole cell patch clamp, α1H; conditions: HEK cells stably expressing human α1H; mainly non-inactivated protocol; values above 10,000 nM represented as 10000
In short: (§1)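 Blockade of T-type current was measured in human α1G- or α1H-expressing HEK 293 cells using whole-cell recording with ~5 MΩ pipettes. Test compounds, dissolved in external solution containing 0.1-0.01% DMSO, were applied close to the cell, and block was examined under both non-inactivating and inactivating voltage protocols.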

[2] = target: N-type calcium channel subunits (α1B, α2δ, and β3a) (Homo sapiens, UniProt Q00975); assay: Block of Cav2.2 channel, whole cell voltage clamp, manual and PatchXpress; conditions: Table 5; table follows Assay Example 3 (whole cell voltage clamp / PatchXpress); assay not given
In short: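 Percent block taken as current amplitude ratio with versus without compound, applied in rising doses; IC50 fitted where one cell received multiple doses. Protocol: 50 ms pulses to +20 mV at 0.067 Hz from […] or −90 mV holding; P/n leak subtraction, no junction-potential correction; manual and PatchXpress recordings.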

[3] = target: human α1G T-type channels (Homo sapiens, UniProt O43497); assay: T-type calcium channel block, whole cell patch clamp, α1G; conditions: HEK cells stably expressing human α1G; mainly non-inactivated protocol; values above 10,000 nM represented as 10000
In short: as §1

Sequence of N-type calcium channel subunits (α1B, α2δ, and β3a) (Q00975 whole entry): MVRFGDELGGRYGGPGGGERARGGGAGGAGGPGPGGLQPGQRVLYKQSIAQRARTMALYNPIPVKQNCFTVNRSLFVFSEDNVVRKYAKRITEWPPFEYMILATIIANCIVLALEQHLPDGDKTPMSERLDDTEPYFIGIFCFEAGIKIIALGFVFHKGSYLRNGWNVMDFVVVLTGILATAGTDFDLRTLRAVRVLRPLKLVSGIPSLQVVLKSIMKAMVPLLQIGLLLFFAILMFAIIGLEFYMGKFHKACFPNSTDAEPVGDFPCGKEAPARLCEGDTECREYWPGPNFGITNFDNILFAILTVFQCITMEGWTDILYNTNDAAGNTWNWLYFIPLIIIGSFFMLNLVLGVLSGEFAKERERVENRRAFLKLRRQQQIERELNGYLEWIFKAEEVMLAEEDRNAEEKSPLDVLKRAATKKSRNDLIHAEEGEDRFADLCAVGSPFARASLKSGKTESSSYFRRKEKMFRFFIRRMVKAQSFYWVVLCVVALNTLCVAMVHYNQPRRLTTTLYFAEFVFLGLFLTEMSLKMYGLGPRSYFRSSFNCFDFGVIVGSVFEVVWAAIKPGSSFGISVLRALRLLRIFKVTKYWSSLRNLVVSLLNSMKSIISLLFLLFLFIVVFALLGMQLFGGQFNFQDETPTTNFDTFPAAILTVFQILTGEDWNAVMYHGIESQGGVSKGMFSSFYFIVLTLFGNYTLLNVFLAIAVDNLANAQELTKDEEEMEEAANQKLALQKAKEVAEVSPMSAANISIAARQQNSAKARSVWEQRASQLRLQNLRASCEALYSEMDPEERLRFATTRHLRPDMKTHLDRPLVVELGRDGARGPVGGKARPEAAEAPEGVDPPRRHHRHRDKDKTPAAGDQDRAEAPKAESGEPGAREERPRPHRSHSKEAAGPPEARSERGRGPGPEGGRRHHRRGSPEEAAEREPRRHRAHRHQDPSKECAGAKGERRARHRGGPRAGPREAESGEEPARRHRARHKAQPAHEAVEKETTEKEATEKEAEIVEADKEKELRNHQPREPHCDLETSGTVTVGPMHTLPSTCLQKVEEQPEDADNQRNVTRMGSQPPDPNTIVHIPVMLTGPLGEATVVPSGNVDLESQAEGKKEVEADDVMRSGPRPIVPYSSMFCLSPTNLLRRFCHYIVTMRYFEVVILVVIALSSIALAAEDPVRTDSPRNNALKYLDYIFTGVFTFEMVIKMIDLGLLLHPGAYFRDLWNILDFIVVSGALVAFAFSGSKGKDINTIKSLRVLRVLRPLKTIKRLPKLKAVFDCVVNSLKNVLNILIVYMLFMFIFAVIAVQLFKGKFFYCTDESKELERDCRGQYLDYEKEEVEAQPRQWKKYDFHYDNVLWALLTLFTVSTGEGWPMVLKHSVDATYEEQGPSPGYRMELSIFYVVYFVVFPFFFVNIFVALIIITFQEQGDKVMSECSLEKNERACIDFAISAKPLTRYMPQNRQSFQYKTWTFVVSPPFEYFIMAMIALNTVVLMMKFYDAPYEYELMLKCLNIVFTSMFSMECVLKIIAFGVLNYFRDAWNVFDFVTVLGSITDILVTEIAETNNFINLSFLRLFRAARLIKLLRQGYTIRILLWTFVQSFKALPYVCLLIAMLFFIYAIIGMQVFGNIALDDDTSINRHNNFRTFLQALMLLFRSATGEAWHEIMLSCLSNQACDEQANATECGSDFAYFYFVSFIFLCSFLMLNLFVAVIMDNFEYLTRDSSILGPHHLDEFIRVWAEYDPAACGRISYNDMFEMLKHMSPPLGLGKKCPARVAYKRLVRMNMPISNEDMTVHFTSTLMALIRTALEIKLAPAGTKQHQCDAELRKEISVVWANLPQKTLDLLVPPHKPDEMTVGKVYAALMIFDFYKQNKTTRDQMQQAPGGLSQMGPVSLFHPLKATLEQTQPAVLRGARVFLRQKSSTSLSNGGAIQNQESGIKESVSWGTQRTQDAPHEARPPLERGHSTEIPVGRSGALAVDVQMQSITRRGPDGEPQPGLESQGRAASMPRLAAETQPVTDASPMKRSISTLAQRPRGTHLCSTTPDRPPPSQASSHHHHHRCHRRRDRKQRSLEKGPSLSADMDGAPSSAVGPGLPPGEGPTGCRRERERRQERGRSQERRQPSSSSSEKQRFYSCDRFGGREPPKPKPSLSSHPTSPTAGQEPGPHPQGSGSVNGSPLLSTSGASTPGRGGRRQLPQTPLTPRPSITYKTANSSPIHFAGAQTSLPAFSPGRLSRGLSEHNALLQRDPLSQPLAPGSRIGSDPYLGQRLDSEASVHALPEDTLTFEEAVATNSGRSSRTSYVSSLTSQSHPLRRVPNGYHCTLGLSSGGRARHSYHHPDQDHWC
Sequence of N-type calcium channel subunits (α1B, α2δ, and β3a) (P54289 25-1103 partner): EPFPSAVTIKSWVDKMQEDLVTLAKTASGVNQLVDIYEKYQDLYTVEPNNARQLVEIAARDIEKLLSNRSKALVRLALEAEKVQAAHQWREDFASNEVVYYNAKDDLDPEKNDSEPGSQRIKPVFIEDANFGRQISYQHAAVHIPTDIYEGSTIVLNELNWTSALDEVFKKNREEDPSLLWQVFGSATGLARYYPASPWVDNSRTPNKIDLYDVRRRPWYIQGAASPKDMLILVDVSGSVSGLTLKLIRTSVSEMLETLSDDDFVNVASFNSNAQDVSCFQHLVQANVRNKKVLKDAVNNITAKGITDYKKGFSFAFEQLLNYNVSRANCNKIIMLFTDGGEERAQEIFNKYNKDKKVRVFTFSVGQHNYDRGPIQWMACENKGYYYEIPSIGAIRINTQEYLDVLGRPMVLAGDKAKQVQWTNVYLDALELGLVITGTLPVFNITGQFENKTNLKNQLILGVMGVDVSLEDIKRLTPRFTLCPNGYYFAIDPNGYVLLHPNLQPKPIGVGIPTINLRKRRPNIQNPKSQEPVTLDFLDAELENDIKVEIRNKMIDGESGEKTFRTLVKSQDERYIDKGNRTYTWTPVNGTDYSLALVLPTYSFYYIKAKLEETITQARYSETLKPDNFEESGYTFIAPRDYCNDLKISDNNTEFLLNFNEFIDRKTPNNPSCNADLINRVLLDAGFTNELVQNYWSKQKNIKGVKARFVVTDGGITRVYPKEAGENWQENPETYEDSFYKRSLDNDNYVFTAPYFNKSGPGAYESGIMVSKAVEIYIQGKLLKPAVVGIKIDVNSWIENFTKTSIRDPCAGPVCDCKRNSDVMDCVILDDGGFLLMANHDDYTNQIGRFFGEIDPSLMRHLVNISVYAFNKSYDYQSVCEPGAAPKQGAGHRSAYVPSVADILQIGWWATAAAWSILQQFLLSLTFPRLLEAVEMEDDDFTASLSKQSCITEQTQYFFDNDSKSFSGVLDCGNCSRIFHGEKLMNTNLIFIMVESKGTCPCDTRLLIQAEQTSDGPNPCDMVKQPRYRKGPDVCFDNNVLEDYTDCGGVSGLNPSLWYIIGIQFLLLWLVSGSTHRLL
Sequence of N-type calcium channel subunits (α1B, α2δ, and β3a) (P54284 whole entry partner): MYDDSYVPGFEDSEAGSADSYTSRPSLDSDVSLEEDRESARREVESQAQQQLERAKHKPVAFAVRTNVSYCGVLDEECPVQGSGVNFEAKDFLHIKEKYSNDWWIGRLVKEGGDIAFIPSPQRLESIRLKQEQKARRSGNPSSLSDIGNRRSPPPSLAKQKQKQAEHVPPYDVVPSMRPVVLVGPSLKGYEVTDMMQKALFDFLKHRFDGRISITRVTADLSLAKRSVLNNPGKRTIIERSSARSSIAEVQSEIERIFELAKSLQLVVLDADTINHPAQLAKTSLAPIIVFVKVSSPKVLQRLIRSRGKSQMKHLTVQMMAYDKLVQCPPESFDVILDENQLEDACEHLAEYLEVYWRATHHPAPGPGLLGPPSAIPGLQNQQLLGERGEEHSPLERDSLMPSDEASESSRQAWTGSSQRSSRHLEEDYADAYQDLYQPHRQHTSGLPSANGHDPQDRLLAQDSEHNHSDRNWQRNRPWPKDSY

| Structure (SMILES) | IC50 [1] | IC50 [2] | IC50 [3] |
| --- | --- | --- | --- |
| O=C(N[C@H]1CC[C@@H](S(=O)(=O)c2cccc(C(F)(F)F)c2)CC1)c1cc(C(F)(F)F)ccn1 [Compound 42, 4-(trifluoromethyl)-N-((1S,4S)-4-(3-(trifluoromethyl)phenylsulfonyl)cyclohexyl)picolinamide] | 2860 nM | 480 nM | 1510 nM |
| O=C(CN[C@H]1CC[C@@H](S(=O)(=O)c2cccc(C(F)(F)F)c2)CC1)NCC(F)(F)F [Compound 48, N-(2,2,2-trifluoroethyl)-2-((1S,4S)-4-(3-(trifluoromethyl)phenylsulfonyl)cyclohexylamino)acetamide] | 2330 nM | 1650 nM | 1430 nM |
| CC(C)(C)NC(=O)CN[C@H]1CC[C@@H](S(=O)(=O)c2cccc(C(F)(F)F)c2)CC1 [Compound 49, N-tert-butyl-2-((1S,4S)-4-(3-(trifluoromethyl)phenylsulfonyl)cyclohexylamino)acetamide] | > 10000 nM | 200 nM | > 10000 nM |
| CN(C(=O)CN[C@H]1CC[C@@H](S(=O)(=O)c2cccc(C(F)(F)F)c2)CC1)C(C)(C)C [Compound 50, N-tert-butyl-N-methyl-2-((1S,4S)-4-(3-(trifluoromethyl)phenylsulfonyl)cyclohexylamino)acetamide] | > 10000 nM | 90 nM | > 10000 nM |
| Cc1cc(NC(=O)CN[C@H]2CC[C@@H](S(=O)(=O)c3cccc(C(F)(F)F)c3)CC2)on1 [Compound 54, N-(3-methylisoxazol-5-yl)-2-((1S,4S)-4-(3-(trifluoromethyl)phenylsulfonyl)cyclohexylamino)acetamide] | 7290 nM | 4630 nM | > 10000 nM |
| O=C(CN[C@H]1CC[C@@H](S(=O)(=O)c2cccc(C(F)(F)F)c2)CC1)Nc1ccccn1 [Compound 57, N-(pyridin-2-yl)-2-((1S,4S)-4-(3-(trifluoromethyl)phenylsulfonyl)cyclohexylamino)acetamide] | 1530 nM | 860 nM | 4940 nM |
| O=C(N[C@H]1CC[C@H](S(=O)(=O)c2cccc(C(F)(F)F)c2)CC1)c1ccc(F)c(C(F)(F)F)c1 [Compound 58, 4-fluoro-3-(trifluoromethyl)-N-((1R,4R)-4-(3-(trifluoromethyl)phenylsulfonyl)cyclohexyl)benzamide] | 1480 nM | 800 nM | 1850 nM |
| O=C(N[C@H]1CC[C@H](S(=O)(=O)c2cccc(C(F)(F)F)c2)CC1)c1cc(F)cc(Cl)c1 [Compound 60, 3-chloro-5-fluoro-N-((1R,4R)-4-(3-(trifluoromethyl)phenylsulfonyl)cyclohexyl)benzamide] | 3900 nM | 370 nM | 6440 nM |
| O=C(N[C@H]1CC[C@H](S(=O)(=O)c2cccc(C(F)(F)F)c2)CC1)c1cc(F)cc(C(F)(F)F)c1 [Compound 65, 3-fluoro-5-(trifluoromethyl)-N-((1R,4R)-4-(3-(trifluoromethyl)phenylsulfonyl)cyclohexyl)benzamide] | > 10000 nM | 550 nM | > 10000 nM |
| O=C(N[C@H]1CC[C@H](S(=O)(=O)c2cccc(C(F)(F)F)c2)CC1)C1(C(F)(F)F)CCC1 [Compound 66, 1-(trifluoromethyl)-N-((1R,4R)-4-(3-(trifluoromethyl)phenylsulfonyl)cyclohexyl)cyclobutanecarboxamide] | > 10000 nM | 8990 nM | > 10000 nM |
| CC(C)(C)NC(=O)CN[C@H]1CC[C@H](S(=O)(=O)c2cccc(C(F)(F)F)c2)CC1 [Compound 69, N-tert-butyl-2-((1R,4R)-4-(3-(trifluoromethyl)phenylsulfonyl)cyclohexylamino)acetamide] | > 10000 nM | 1650 nM | > 10000 nM |
| CN(C(=O)CN[C@H]1CC[C@H](S(=O)(=O)c2cccc(C(F)(F)F)c2)CC1)C(C)(C)C [Compound 70, N-tert-butyl-N-methyl-2-((1R,4R)-4-(3-(trifluoromethyl)phenylsulfonyl)cyclohexylamino)acetamide] | 2580 nM | 1220 nM | 8810 nM |
| COc1cc(F)cc(C(=O)N[C@H]2CC[C@](F)(S(=O)(=O)c3cccc(C(F)(F)F)c3)CC2)c1 [Compound 82, 3-fluoro-N-((1R,4R)-4-fluoro-4-(3-(trifluoromethyl)phenylsulfonyl)cyclohexyl)-5-methoxybenzamide] | 1810 nM | 3000 nM | 7490 nM |
| O=C(N[C@H]1CC[C@@](F)(S(=O)(=O)c2cccc(C(F)(F)F)c2)CC1)c1nc2cc(C(F)(F)F)ccc2[nH]1 [Compound 85, N-((1S,4S)-4-fluoro-4-(3-(trifluoromethyl)phenylsulfonyl)cyclohexyl)-5-(trifluoromethyl)-1H-benzo[d]imidazole-2-carboxamide] | 1230 nM | 850 nM | 2150 nM |
| O=C(N[C@H]1CC[C@@](F)(S(=O)(=O)c2cccc(C(F)(F)F)c2)CC1)c1cc(F)cc(Cl)c1 [Compound 86, 3-chloro-5-fluoro-N-((1S,4S)-4-fluoro-4-(3-(trifluoromethyl)phenylsulfonyl)cyclohexyl)benzamide] | 1930 nM | 190 nM | > 10000 nM |
| COc1cc(F)cc(C(=O)N[C@H]2CC[C@@](F)(S(=O)(=O)c3cccc(C(F)(F)F)c3)CC2)c1 [Compound 87, 3-fluoro-N-((1S,4S)-4-fluoro-4-(3-(trifluoromethyl)phenylsulfonyl)cyclohexyl)-5-methoxybenzamide] | 2100 nM | 240 nM | 6440 nM |

More lines, now with the values ahead:

| IC50 [1] | IC50 [2] | IC50 [3] | Structure (SMILES) |
| --- | --- | --- | --- |
| 910 nM | 1060 nM | 1250 nM | O=C(N[C@H]1CC[C@@H](S(=O)(=O)c2cccc(C(F)(F)F)c2)CC1)c1cc(-c2ccc(F)cc2)n[nH]1 [Compound 46, 3-(4-fluorophenyl)-N-((1S,4S)-4-(3-(trifluoromethyl)phenylsulfonyl)cyclohexyl)-1H-pyrazole-5-carboxamide] |
| 790 nM | 1540 nM | 860 nM | CC(C)NC(=O)CN[C@H]1CC[C@@H](S(=O)(=O)c2cccc(C(F)(F)F)c2)CC1 [Compound 52, N-isopropyl-2-((1S,4S)-4-(3-(trifluoromethyl)phenylsulfonyl)cyclohexylamino)acetamide] |
| 480 nM | 260 nM | 820 nM | O=C(CN[C@H]1CC[C@@H](S(=O)(=O)c2cccc(C(F)(F)F)c2)CC1)NC1CCCCC1 [Compound 56, N-cyclohexyl-2-((1S,4S)-4-(3-(trifluoromethyl)phenylsulfonyl)cyclohexylamino)acetamide] |
| 550 nM | 3480 nM | 1080 nM | O=C(N[C@H]1CC[C@H](S(=O)(=O)c2cccc(C(F)(F)F)c2)CC1)c1ccc(C(F)(F)F)cn1 [Compound 62, 5-(trifluoromethyl)-N-((1R,4R)-4-(3-(trifluoromethyl)phenylsulfonyl)cyclohexyl)picolinamide] |
| 1210 nM | 4950 nM | 1530 nM | Cc1cc(NC(=O)CN[C@H]2CC[C@H](S(=O)(=O)c3cccc(C(F)(F)F)c3)CC2)on1 [Compound 74, N-(3-methylisoxazol-5-yl)-2-((1R,4R)-4-(3-(trifluoromethyl)phenylsulfonyl)cyclohexylamino)acetamide] |
| 510 nM | 590 nM | 1030 nM | O=C(CN[C@H]1CC[C@H](S(=O)(=O)c2cccc(C(F)(F)F)c2)CC1)NC1CCCCC1 [Compound 76, N-cyclohexyl-2-((1R,4R)-4-(3-(trifluoromethyl)phenylsulfonyl)cyclohexylamino)acetamide] |
| 440 nM | 630 nM | 1190 nM | O=C(N[C@H]1CC[C@](F)(S(=O)(=O)c2cccc(C(F)(F)F)c2)CC1)c1cc(C(F)(F)F)ccn1 [Compound 79, N-((1R,4R)-4-fluoro-4-(3-(trifluoromethyl)phenylsulfonyl)cyclohexyl)-4-(trifluoromethyl)picolinamide] |
| 460 nM | 4310 nM | 900 nM | O=C(N[C@H]1CC[C@](F)(S(=O)(=O)c2cccc(C(F)(F)F)c2)CC1)c1nc2cc(C(F)(F)F)ccc2[nH]1 [Compound 80, N-((1R,4R)-4-fluoro-4-(3-(trifluoromethyl)phenylsulfonyl)cyclohexyl)-5-(trifluoromethyl)-1H-benzo[d]imidazole-2-carboxamide] |
| 220 nM | 410 nM | 380 nM | O=C(N[C@H]1CC[C@](F)(S(=O)(=O)c2cccc(C(F)(F)F)c2)CC1)c1cc(F)cc(Cl)c1 [Compound 81, 3-chloro-5-fluoro-N-((1R,4R)-4-fluoro-4-(3-(trifluoromethyl)phenylsulfonyl)cyclohexyl)benzamide] |
| 960 nM | 480 nM | 2850 nM | O=C(N[C@H]1CC[C@](F)(S(=O)(=O)c2cccc(C(F)(F)F)c2)CC1)c1ccc(F)c(C(F)(F)F)c1 [Compound 83, 4-fluoro-N-((1R,4R)-4-fluoro-4-(3-(trifluoromethyl)phenylsulfonyl)cyclohexyl)-3-(trifluoromethyl)benzamide] |
| 650 nM | 310 nM | 2870 nM | O=C(N[C@H]1CC[C@@](F)(S(=O)(=O)c2cccc(C(F)(F)F)c2)CC1)c1cc(C(F)(F)F)ccn1 [Compound 84, N-((1S,4S)-4-fluoro-4-(3-(trifluoromethyl)phenylsulfonyl)cyclohexyl)-4-(trifluoromethyl)picolinamide] |
